Results reported in PMC6563716 (Helvetica Chimica Acta, 2019).

Biological target: T1, human 15-lipoxygenase-1 (15-LOX-1) (Homo sapiens, UniProt P16050)
T1 sequence (P16050 2-662): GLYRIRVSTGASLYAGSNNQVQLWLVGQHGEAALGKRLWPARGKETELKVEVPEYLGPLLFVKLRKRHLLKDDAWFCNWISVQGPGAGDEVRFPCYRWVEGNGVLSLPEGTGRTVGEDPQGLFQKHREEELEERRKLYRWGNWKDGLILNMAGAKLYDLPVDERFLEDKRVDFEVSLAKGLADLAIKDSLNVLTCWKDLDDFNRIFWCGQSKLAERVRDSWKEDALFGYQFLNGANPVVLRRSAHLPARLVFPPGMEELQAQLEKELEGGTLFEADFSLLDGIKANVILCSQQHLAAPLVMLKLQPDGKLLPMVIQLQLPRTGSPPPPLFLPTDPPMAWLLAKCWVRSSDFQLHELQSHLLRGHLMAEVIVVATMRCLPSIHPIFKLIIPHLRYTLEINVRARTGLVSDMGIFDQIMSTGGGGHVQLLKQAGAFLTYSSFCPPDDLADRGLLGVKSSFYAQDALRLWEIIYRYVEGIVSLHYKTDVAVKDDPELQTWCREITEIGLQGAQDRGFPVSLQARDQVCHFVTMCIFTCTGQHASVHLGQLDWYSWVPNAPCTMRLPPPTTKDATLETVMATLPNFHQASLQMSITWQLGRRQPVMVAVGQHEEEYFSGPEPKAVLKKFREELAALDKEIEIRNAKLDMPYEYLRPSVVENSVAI
Assay: UV absorption assay
Assay type: biochemical

Row | Structure (SMILES) | IC50
1 | CC(C)CCCC(C)CC(=O)NN=Cc1cccnc1 (racemic) [compound 17, 3,7‐Dimethyl‐N′‐[(pyridin‐3‐yl)methylidene]octanehydrazide] | 16 ± 6 µM
2 | CC(C)CCCC(C)CC(=O)NN=Cc1cccs1 (racemic) [compound 2, 3,7‐Dimethyl‐N′‐(thiophen‐2‐ylmethylene)octanehydrazide] | 59 ± 7 µM
3 | COc1cc(C=NNC(=O)CC(C)CCCC(C)C)ccc1O (racemic) [compound 4, N ′‐[(4‐Hydroxy‐3‐methoxyphenyl)methylidene]‐3,7‐dimethyloctanehydrazide] | 42 ± 4 µM
